Data taken from ChEMBL document CHEMBL1201862, “PubChem BioAssay data set” (2004).
Active and inactive are the calls of the source.

Columns and labels:
[1] = biological target: T1, Long-chain-fatty-acid--AMP ligase FadD28 (Mycobacterium tuberculosis, UniProt P9WQ59); assay: Fluorescence polarization aasay to screen for inhibitors that compete for the binding of FadD28 to a bisubstrate Measured in Biochemical System Using Plate Reader - 2147-01_Inhibitor_Dose_CherryPick_Activity.; format: functional, Mycobacterium tuberculosis H37Rv
T1 sequence (P9WQ59 whole entry): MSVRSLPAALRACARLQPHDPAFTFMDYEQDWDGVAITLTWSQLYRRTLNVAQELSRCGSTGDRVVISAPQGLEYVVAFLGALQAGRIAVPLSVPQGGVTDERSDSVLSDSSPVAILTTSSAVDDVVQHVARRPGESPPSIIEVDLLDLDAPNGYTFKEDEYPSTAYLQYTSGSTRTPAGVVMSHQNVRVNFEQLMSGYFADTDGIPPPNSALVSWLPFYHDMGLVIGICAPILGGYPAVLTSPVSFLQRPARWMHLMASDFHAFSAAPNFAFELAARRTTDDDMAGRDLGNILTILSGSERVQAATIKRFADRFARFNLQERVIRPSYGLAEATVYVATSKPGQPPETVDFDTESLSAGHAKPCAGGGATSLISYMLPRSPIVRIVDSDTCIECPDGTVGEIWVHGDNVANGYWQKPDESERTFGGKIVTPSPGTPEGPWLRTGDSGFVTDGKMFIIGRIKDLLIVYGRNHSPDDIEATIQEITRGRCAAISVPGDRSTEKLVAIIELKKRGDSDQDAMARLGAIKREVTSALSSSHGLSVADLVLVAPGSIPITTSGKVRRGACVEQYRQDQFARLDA

[2] = biological target: Voltage-dependent T-type calcium channel subunit alpha-1H (Homo sapiens, UniProt O95180); format: functional;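 further: channel activity triggered by adding a high calcium stimulation buffer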
H4 = assay: Luminescence Cell-Based Dose Response HTS to Identify Activators of 5'UTR Stem-Loop Driven Prion Protein mRNA Translation in H4 Neuroglioblastoma Cells. [Related pubchem assays: 1829 (Project Summary), 1814 (Primary HTS)]; format: functional; settings: Homo sapiens
[3] = Luminescence Cell-Based Dose Response HTS to Identify Activators of Luciferase Translation or Activity in H4 […] Cells. [Related pubchem assays: 1829 (Project Summary), 1814 (Primary HTS)]; format: functional
Beta-galactosidase = Beta-galactosidase (Escherichia coli, UniProt Q8VNN2); assay: Dose response counterscreen for EBI2 assay utilizing the enzyme, b-galactosidase.; format: functional
[4] = Luminescence Cell-Based Dose Confirmation HTS to Identify Activators of 5'UTR Stem-Loop Driven Alpha-Synuclein mRNA Translation in H4 Neuroglioblastoma Cells. [Related pubchem assays: 1829 (Project Summary), 1814 (Primary HTS)]; format: functional
[5] = biological target: T2, Zinc finger protein mex-5 (Caenorhabditis elegans, UniProt Q9XUB2); assay: MEX-5/TCR-2 RNA interaction inhibitors, dose response, biochemical, C. elegans, fluorescence polarization (AID 1960)
T2 sequence (Q9XUB2 whole entry): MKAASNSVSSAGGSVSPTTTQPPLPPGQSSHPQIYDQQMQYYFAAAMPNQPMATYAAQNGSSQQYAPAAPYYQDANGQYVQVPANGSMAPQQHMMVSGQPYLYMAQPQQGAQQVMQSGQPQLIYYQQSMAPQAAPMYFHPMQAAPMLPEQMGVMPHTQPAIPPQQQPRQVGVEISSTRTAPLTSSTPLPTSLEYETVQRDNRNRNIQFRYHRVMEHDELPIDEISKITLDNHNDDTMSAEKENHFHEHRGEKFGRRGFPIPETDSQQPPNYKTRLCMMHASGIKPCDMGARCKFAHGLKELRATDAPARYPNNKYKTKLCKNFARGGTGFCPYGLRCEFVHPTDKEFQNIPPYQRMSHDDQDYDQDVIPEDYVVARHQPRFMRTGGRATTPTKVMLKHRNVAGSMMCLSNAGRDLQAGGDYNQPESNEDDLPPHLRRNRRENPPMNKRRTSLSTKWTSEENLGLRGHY

[6] = biological target: T3, RNA-binding protein pos-1 (Caenorhabditis elegans, UniProt G5EF15); assay: inhibitors of POS-1/mex-3 RNA binding, dose response, biochemical, fluorescence polarization (AID 1964);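 further: purified POS-1 fused to maltose binding protein made in E. coli; potency of compounds blocking POS-1 binding to fluorescent RNA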
T3 sequence (G5EF15 whole entry): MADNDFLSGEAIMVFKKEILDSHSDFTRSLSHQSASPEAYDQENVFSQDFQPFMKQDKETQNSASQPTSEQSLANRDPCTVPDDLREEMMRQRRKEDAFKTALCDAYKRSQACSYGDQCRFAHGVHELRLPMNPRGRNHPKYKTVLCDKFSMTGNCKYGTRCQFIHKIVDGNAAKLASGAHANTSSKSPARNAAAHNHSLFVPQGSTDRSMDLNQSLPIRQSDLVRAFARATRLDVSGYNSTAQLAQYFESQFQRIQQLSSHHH

[7] = inhibitors of SNCA 5'UTR-driven reporter translation, confirmation, H4 neuroglioma cells, luminescence (AID 1988); format: functional, cell-based
[8] = inhibitors of firefly luciferase expression or activity, dose response, H4 neuroglioma cells, luminescence (AID 1990); format: functional, cell-based
[9] = Luminescence Cell-Based Dose Response HTS to Identify Inhibitors of 5'UTR Stem-Loop Driven Prion Protein mRNA Translation in H4 Neuroglioblastoma Cells. [Related pubchem assays: 1827 (Project Summary), 1813 (Primary HTS)]; format: functional
cells [10] = format: functional, cell-based
cells [11] = format: functional, cell-based; remark: listed apart in the source
Fatty acid synthase [12] = biological target: T4, Fatty acid synthase (Homo sapiens, UniProt P49327); assay: FAS thioesterase domain inhibitors, dose response, biochemical, endpoint fluorescence intensity, uHTS hits (AID 624327); format: functional;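 further: fluorescence from hydrolysis of an O-methyl fluorescein acyl ester substrate by the enzyme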
[13] = biological target: DNA dC->dU-editing enzyme APOBEC-3G (Homo sapiens, UniProt Q9HC16); assay: Dose Response confirmation of small molecule APOBEC3G DNA Deaminase Inhibitors via a fluorescence-based single-stranded DNA deaminase assay. [Related pubchem assays (depositor defined):AID493012, AID493028]; format: functional
[14] = biological target: Eukaryotic translation initiation factor 4E (Mus musculus, UniProt P63073); assay: eIF4E–eIF4G protein interaction inhibitors, dose response, biochemical, TR-FRET (AID 855); format: functional;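 further: potency for disrupting eIF4E binding to eIF4GI seen as loss of FRET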
Fatty acid synthase [15] = biological target: T4, Fatty acid synthase; assay: FAS thioesterase domain inhibitors, dose response, biochemical, kinetic fluorescence intensity (AID 624326); format: functional;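 further: rate of fluorescence rise from hydrolysis of a fluorogenic O-methyl fluorescein ester substrate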
[16] = inhibitors of clade B AD8 Env fusion, dose response, cell-based, cherry-pick (AID 652062); format: functional;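 further: luciferase signal from cell-cell fusion driven by HIV-1 clade B AD8 Env; potency is for inhibitors of fusion seen as a drop in luminescence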
[17] = ZM109 Env clade C HIV-1 fusion inhibitors, dose response, HeLa effector, CEM target cells, luciferase, cherry-pick (AID 652058); format: functional, cell-based
[18] = inhibitors of HIV Env-driven cell fusion, dose response, cherry-pick (AID 652057); format: functional, cell-based
[19] = HeLa cell cytotoxicity, dose response, cytotoxicity control for MgcRacGAP inhibitor project (AID 624300); format: functional
[20] = biological target: T5, Rac GTPase-activating protein 1 (Homo sapiens, UniProt Q9H0H5); assay: MgcRacGAP GTPase-activating activity inhibitors, confirmation, biochemical, ADP Hunter fluorescence, primary and confirmatory (AID 624330); format: functional
T5 sequence (Q9H0H5 whole entry): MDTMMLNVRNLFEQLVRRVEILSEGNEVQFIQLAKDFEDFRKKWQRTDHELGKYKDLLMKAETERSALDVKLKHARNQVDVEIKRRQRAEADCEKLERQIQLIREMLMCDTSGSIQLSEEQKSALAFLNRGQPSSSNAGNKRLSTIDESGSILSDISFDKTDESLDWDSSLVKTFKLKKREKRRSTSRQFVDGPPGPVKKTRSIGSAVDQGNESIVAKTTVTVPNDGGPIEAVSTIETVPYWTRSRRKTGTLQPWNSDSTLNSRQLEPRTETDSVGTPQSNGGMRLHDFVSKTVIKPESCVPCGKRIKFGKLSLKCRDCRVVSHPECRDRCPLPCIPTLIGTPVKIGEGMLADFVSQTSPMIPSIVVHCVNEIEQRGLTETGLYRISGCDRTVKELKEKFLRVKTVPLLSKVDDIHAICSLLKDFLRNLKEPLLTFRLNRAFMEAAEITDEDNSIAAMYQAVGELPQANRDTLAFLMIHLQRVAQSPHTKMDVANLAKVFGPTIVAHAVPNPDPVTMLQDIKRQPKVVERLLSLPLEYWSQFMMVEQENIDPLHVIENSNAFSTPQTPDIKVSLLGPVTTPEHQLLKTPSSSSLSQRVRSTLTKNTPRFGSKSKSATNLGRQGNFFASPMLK

cells [21] = format: functional, cell-based; settings: HEK-CNG
Cytochrome P450 2D6 = Cytochrome P450 2D6 (Homo sapiens, UniProt P10635);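 further: CYP2D6 member of a cytochrome P450 panel assay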
Galanin receptor type 3 = biological target: T6, Galanin receptor type 3 (Homo sapiens, UniProt O60755); assay: Fluorescence-based cell-based primary high throughput dose response assay to identify antagonists of the Galanin Receptor 3 (GalR3).; format: functional
T6 sequence (O60755 whole entry): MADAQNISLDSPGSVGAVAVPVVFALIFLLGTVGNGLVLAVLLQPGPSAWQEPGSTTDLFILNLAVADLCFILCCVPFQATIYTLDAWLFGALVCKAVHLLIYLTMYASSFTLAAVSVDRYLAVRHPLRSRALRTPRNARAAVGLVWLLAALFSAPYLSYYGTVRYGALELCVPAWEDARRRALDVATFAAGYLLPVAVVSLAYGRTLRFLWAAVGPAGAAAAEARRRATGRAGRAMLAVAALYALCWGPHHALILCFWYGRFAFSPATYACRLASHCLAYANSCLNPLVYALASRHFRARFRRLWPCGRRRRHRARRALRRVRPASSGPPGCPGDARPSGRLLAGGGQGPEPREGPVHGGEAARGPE

Sequence of Beta-galactosidase (Q8VNN2 whole entry): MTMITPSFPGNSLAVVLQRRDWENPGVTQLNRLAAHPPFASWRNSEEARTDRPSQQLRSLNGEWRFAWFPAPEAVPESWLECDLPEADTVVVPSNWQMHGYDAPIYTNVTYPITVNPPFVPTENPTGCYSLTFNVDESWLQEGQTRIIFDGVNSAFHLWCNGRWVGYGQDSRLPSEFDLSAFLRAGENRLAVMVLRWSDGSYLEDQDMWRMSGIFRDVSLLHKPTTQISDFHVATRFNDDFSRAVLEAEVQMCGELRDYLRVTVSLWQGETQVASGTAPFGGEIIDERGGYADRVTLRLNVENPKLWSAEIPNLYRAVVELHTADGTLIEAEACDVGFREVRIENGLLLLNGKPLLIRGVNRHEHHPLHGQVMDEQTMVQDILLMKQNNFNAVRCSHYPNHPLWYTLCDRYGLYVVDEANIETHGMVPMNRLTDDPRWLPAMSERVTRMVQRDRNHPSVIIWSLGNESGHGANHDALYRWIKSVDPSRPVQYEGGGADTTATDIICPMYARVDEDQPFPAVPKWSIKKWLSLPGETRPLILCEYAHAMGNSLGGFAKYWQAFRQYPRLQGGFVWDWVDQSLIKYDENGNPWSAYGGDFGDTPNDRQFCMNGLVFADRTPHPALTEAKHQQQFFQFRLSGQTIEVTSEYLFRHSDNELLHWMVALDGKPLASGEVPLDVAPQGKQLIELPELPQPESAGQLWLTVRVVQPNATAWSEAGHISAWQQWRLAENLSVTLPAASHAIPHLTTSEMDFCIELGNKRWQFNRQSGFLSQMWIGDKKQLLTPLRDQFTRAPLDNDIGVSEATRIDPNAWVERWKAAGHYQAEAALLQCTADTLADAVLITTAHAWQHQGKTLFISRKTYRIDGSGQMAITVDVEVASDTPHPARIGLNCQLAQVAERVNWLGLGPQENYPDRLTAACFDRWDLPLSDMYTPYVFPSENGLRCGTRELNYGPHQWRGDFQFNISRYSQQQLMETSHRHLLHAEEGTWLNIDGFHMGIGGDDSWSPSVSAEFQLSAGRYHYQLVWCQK
Sequence of Voltage-dependent T-type calcium channel subunit alpha-1H (O95180 whole entry): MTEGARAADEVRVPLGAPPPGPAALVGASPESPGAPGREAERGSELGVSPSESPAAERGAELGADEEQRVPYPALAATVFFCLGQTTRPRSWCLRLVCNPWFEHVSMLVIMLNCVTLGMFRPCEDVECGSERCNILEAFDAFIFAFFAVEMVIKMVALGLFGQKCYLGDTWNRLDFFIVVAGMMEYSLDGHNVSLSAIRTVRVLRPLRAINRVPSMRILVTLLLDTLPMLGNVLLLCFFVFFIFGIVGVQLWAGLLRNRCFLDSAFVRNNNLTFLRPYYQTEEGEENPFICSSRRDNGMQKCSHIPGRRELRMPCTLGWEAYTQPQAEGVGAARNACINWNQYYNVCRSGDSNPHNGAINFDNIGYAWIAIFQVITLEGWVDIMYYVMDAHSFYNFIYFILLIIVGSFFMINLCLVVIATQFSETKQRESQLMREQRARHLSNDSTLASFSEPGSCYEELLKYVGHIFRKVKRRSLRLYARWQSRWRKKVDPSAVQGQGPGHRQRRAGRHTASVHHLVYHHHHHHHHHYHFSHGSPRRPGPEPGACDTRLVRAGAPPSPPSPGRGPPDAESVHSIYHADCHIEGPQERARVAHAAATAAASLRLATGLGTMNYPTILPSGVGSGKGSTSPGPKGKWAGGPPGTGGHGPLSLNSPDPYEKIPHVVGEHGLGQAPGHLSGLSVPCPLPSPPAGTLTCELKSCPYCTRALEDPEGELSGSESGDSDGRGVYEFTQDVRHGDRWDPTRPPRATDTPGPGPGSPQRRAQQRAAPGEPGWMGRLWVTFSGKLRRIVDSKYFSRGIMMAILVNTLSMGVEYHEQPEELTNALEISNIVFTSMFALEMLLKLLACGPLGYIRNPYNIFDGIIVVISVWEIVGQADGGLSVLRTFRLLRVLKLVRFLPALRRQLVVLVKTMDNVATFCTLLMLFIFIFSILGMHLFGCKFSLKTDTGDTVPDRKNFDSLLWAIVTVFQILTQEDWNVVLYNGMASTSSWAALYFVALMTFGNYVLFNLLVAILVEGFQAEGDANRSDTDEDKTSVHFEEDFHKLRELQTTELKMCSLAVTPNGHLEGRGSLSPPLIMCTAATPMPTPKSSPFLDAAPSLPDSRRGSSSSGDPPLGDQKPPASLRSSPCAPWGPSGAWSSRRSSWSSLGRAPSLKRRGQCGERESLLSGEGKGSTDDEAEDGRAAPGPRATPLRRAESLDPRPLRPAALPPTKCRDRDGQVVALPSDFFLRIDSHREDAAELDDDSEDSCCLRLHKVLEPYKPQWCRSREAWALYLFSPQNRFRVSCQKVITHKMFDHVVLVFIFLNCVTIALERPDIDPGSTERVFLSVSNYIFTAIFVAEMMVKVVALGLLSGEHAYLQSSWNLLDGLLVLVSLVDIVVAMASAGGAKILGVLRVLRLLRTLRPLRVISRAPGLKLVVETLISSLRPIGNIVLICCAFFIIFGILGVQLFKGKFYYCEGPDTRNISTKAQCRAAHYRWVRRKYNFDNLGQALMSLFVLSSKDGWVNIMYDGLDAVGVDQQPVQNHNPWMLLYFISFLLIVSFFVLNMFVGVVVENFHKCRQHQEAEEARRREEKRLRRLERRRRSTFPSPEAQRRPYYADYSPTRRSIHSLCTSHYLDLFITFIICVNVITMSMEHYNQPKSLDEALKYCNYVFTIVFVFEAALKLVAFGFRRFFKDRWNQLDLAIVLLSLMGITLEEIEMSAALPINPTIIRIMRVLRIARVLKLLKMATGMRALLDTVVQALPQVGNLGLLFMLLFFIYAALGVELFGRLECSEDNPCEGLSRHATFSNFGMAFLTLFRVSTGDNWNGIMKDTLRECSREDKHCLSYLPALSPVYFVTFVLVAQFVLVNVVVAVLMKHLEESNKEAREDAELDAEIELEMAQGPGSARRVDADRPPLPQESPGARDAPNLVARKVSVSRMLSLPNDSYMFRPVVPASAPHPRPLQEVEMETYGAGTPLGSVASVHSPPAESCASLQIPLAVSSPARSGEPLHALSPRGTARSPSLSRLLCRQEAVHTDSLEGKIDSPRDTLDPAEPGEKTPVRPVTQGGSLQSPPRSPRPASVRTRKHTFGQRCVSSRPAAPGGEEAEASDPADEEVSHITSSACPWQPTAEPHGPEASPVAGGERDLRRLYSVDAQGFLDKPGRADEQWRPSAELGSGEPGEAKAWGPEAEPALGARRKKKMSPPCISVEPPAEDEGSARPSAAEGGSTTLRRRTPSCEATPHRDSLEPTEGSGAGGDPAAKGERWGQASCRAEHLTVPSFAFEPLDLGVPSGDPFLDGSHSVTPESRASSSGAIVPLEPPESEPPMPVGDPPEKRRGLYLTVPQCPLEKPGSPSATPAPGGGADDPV
Sequence of Eukaryotic translation initiation factor 4E (P63073 whole entry, the tested form may be a part): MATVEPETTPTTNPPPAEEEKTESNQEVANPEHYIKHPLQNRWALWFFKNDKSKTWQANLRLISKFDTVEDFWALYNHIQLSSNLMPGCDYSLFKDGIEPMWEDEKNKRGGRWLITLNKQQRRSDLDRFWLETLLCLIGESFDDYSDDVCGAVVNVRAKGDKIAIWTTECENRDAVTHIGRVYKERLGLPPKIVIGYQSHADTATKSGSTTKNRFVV
Sequence of DNA dC->dU-editing enzyme APOBEC-3G (Q9HC16 whole entry): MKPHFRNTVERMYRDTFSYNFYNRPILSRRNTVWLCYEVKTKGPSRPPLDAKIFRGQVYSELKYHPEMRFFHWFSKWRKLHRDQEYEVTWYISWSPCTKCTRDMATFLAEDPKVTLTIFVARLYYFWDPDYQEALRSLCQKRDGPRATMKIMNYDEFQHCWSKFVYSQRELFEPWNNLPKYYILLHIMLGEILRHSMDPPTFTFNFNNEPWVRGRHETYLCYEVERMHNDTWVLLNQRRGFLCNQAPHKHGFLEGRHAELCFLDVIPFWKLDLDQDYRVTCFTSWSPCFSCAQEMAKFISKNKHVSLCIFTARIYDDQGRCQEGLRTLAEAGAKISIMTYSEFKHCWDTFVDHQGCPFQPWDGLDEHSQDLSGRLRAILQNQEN
Sequence of Cytochrome P450 2D6 (P10635 whole entry): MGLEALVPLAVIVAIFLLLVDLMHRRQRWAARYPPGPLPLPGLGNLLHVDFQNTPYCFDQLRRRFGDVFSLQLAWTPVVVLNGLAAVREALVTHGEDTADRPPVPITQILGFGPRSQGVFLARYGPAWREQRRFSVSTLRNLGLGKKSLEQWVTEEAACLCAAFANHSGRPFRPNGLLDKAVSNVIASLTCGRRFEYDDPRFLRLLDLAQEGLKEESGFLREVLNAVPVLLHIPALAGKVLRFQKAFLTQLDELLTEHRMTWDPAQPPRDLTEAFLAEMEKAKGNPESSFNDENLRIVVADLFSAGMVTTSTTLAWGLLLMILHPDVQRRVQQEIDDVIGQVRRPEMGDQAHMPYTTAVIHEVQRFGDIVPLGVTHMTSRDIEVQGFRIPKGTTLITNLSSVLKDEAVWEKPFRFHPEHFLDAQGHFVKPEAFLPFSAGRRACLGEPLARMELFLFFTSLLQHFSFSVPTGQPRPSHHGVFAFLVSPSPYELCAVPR

COc1ccc(/C=C/C(=O)N(C)Cc2cccs2)cc1S(=O)(=O)N1CCOCC1
AC50 [1]: 42.6 µM (active)

O=C(CCSc1nc(-c2ccco2)cc(C(F)(F)F)n1)N1CCN(c2ccccn2)CC1
EC50 [2]: 6.47 µM (active)

CCN1CCN(C(=O)c2cc3c(s2)-c2c(C)cccc2OC3)CC1
EC50 (H4): 9.85 µM (active) | EC50 [3]: 5.32 µM (active) | IC50 (Beta-galactosidase): > 80 µM (inactive)

O=C(NC(=S)NC1CCCCCC1)c1cncc(Br)c1
EC50 (H4): 7.48 µM (active) | EC50 [4]: 39.6 µM (active) | EC50 [3]: 76.3 µM (active)

CCc1c(C(=O)NNC(=S)Nc2ccc(S(=O)(=O)Nc3ncccn3)cc2)csc1C
EC50 [5]: 12.5 µM (active) | EC50 [6]: > 300 µM (not active) | AC50 [1]: 89.7 µM (active)

O=C(c1cc2cc(Cl)ccc2[nH]1)N1CCC2(CC1)OCCO2
IC50 (Beta-galactosidase): > 80 µM (inactive)

CC1CCC2(CC1)NC(=O)N(NC(=O)CCl)C2=O (stereo not drawn)
EC50 (H4): > 120 µM (not active) | EC50 [4]: 34.7 µM (active) | EC50 [3]: > 120 µM (not active)

CCOC(=O)c1c(C)[nH]c(C)c1C(=O)Cn1nnc(-c2ccccc2C)n1
EC50 [7]: > 120 µM (not active) | EC50 [8]: > 60 µM (not active) | EC50 [9]: 18.3 µM (active) | EC50 [2]: 5.31 µM (active)

O=C(/C=C/c1ccc(Cl)cc1)N1CCN(c2ccccn2)CC1
IC50 (Beta-galactosidase): > 80 µM (inactive)

CCc1nnc(NC(=O)CC(CN(C)S(=O)(=O)c2ccccc2)c2ccccc2)s1 (stereo not drawn)
EC50 [2]: 2.4 µM (active)

O=[N+]([O-])c1[nH]cnc1/C=C/c1ccccc1
IC50 (cells [10]): > 29.9 µM (inactive) | EC50 (cells [11]): > 29.9 µM (inactive)

CCS(=O)(=O)c1ccc2oc(Nc3ccc(C(C)C)cc3)nc2c1
IC50 (Fatty acid synthase [12]): 22.3 µM (inactive) | IC50 [13]: 20.7 µM (active) | IC50 [14]: > 64 µM (inactive) | IC50 (Fatty acid synthase [15]): 12.6 µM (active)

CC1CC(C)CN(C(=O)CSc2nnc(-c3ccc(Cl)s3)o2)C1 (stereo not drawn)
EC50 [2]: 10.8 µM (active)

Cc1c(C(=O)N2CCc3ccccc3C2)oc2ccc(S(=O)(=O)N3CC(C)CC(C)C3)cc12 (stereo not drawn)
IC50 (cells [10]): > 29.9 µM (inactive) | EC50 (cells [11]): > 29.9 µM (inactive)

COc1ccc(NC(=O)Nc2ccc3c(c2)C(=O)N([C@@H](C)CO)C[C@H](C)[C@H](CN(C)Cc2ccncc2)OCCCC[C@H](C)O3)cc1
AC50 [16]: 12.7 µM (active) | AC50 [17]: 0.412 µM (active) | AC50 [18]: 0.541 µM (active)

Cc1noc(C)c1S(=O)(=O)N(C)C[C@@H]1Oc2ccc(NC(=O)Nc3cccc4ccccc34)cc2CC(=O)N([C@@H](C)CO)C[C@@H]1C
AC50 [16]: 9.04 µM (active) | AC50 [17]: 2.44 µM (active) | AC50 [18]: 4.83 µM (active)

COc1cccc(/C=C/C(=O)N2CCN(S(=O)(=O)c3ccccc3)CC2)c1
IC50 (Beta-galactosidase): > 80 µM (inactive)

COc1cc2c(cc1OC)C(/C=C/c1ccco1)=NCC2
CC50 [19]: 100 µM (active) | IC50 [20]: 42.3 µM (active)

CO/C(O)=C1\C(C)=NC2=C(C(=O)CCC2)C1c1cn(Cc2ccc(Cl)cc2Cl)nc1-c1ccccc1 (stereo not drawn)
EC50 (cells [21]): > 29.9 µM (inactive) | AC50 (Cytochrome P450 2D6): 3.55 µM (inconclusive) | IC50 (Galanin receptor type 3): 3.85 µM (active)

CN1CCN(c2ccc(Cl)cc2NC(=O)C2COc3ccccc3O2)CC1 (stereo not drawn)
EC50 [2]: 8.08 µM (active)
